Measurements published in patent publication US12662511B2, “Molecular transport system to the central nervous system” (SRI International, priority 2020, dated 2026).
No end group written: not given here.

Key:
[1] = tested on: choroid plexus epithelial cell layer; test: Phage clone transport through human choroid plexus cells in vitro (FIG. 12); format: cell-based; details: phage-displayed peptide
Description: CPEC4_Phage clone sequence […] (SEQ ID NO:2) was the lead peptide sequence in these studies. CPEC4 phage clone is enriched as multiple rounds of panning were performed. CPEC4 phage clone is selected from the transwell indicating transport and release.
The phage clone remains viable during the cellular transport.

choroid plexus cells = test: Transport across monolayer of choroid plexus cells with dye or streptavidin cargo (FIG. 21); format: cell-based; details: chemical (AF647 dye) and protein (50 kDa Streptavidin) cargoes
Text: The integrity of the monolayer with tight junctions is observed by the lack of diffusion or transport of low a molecular weight dye (750) maleimide), a 10 kDa dextran polymer, or larger protein (50 kDa). In the SA conjugate, the MTS has a biotin in the core structure. The biotin is then conjugated to a streptavidin protein labeled with a fluorophore.

[2] = tested on: human primary choroid plexus epithelial cells; test: Transwell transport of fluorescent protein cargo across human choroid plexus in vitro model; format: cell-based
Text: A rat model was developed as well. Selection to identify a phage clone from the library that crosses the choroid plexus epithelial barrier has also been informed. […] The phage clone was transported into the CSF selectively and data supported similar transport for the MTS peptide.
FIG. 13 represents a dimer of the CPEC4 peptide. The CPEC4 peptide was synthesized as a dimer and having a biotin handle that allows for attachment of fluorescently labeled proteins.
6-9% of the protein is transported across the cell layer. Tight junctions remain intact as witnessed by lack of dextran transport and maintenance of transepithelial resistance at the end of the experiment.

[3] = In vivo CSF accumulation and brain distribution of dye-labeled MTS after IV tail vein injection; set-up: species or system rat; details: for distribution in brain (fluorescence imaging of coronal slices) / amount present relative to MTS_CPEC4_V2: rat, IV tail vein; for distribution in brain (fluorescence imaging of coronal slices): dye-labeled MTS; for amount present relative to MTS_CPEC4_V2: CSF, dimeric peptide, fold higher than MTS_CPEC4_V2
Description: (§1) The MTS is labeled with a dye that allows us to visualize its location. It is injected IV into the tail vein of a rat. After the indicated time, the CSF is isolated from the cisterna magna. The brain is harvested. After a fixation period, the brain is sliced in 1 mm coronal segments (front to back). The individual slices of the brain are imaged using fluorescence to locate the regions of peptide accumulation.
as §1, with “Dimeric MTS_Z310-5 is present in an amount 3× higher than MTS_CPEC4_V2 (FIG. 26). […] The MTS” for “The MTS”, “of peptide accumulation” for “of peptide accumulation.”
as §1, with “Dimeric MTS_Z310-2 is present in an amount 9× higher than MTS_CPEC4_V2 (FIG. 27). […] The MTS” for “The MTS”, “of peptide accumulation” for “of peptide accumulation.”

[4] = tested on: rat choroid plexus epithelial cells (Z310); test: Transwell transport across rat choroid plexus epithelial cells (Z310); format: cell-based
Description: FIG. 15 is an in vitro transwell assay used to determine the ability of the MTS_CPEC4 phage clone or peptide to cross a choroid plexus barrier model derived from a Rat (Z310) cells). The amount of input placed on one side of the barrier (the “blood” side) and the amount that passes through the cells to the other side (the CSF side) is measured. The top table represents the data for the phage clone. The empty phage has no MTS peptide attached. The amount of phage in each side of the transwell is determined by bacterial titering. The bottom table represents the data for the synthetic peptide. Here the peptide is labeled with a fluorophore so the peptide on either side of the barrier can be measured. Dextran-dye (such as Alexa Fluor 488) is used as a control molecule. This molecule should not pass through the transwell and assures that the choroid plexus model is valid.
Other lead MTS peptides were examined using a transwell transport set up with rat choroid plexus cells (FIG. 24). Eight phage clones were enriched in the CSF. Individual phage clones were then tested for transcytosis in vitro on Z310 choroid plexus cells and CSF accumulation in rats. MTS_Z310-2 (SEQ ID NO:4) and MTS_Z310-5 (SEQ ID NO:7) phage clones were carried forward for further evaluation. […] The 20% transport is better than that seen with CPEC4. […]

[5] = Serum stability of MTS peptide; format: in vitro ADME; details: read-out: peptide remains intact
Description: The stability of the different MTS sequences is important. […] 80% of the peptide remains intact at 24 hours. Modifications were mapped by MS.

## DGYKLQTSLDWQMWNP (molecular transport peptide) [MTS_CPEC4_V1]
[1]
  transport of phage particle across choroid plexus epithelial cell layer: mediates transport of a large phage particle across choroid plexus epithelial cell layer
Choroid plexus cells
  transport across monolayer of choroid plexus cells: efficiently transported
[2]
  protein transported across the cell layer: 6-9%

## MTS_CPEC4_V2 (SEQ ID NO: 1) dimers: comprises two MTS peptides each having the sequence DAYKLQTSLDWQMWNP (SEQ ID NO: 1) (also: dimer, linkage not given here)
[3]
  distribution in brain (fluorescence imaging of coronal slices): distributed throughout the ventricular system of the brain

## Dimeric MTS_Z310-5: comprises two MTS peptides each having the sequence SKETYSMNAQRQHERS (SEQ ID NO:7) (also: dimer, linkage not given here)
[3]
  amount present relative to MTS_CPEC4_V2: 3 ×
  distribution in brain (fluorescence imaging of coronal slices): distributed throughout the ventricular system of the brain

## SKETYSMNAQRQHERS (molecular transport peptide) [MTS_Z310-5]
[4]
  transport of protein cargo: 20%

## CSCC[C@H](NC(=O)[C@H](CCC(N)=O)NC(=O)[C@H](Cc1c[nH]c2ccccc12)NC(=O)[C@H](CC(=O)O)NC(=O)[C@H](CC(C)C)NC(=O)[C@H](CO)NC(=O)[C@@H](NC(=O)[C@H](CCC(N)=O)NC(=O)[C@H](CC(C)C)NC(=O)[C@H](CCCCN)NC(=O)[C@H](Cc1ccc(O)cc1)NC(=O)[C@H](C)NC(=O)[C@H](CC(=O)O)NC(C)=O)[C@@H](C)O)C(=O)N[C@@H](Cc1c[nH]c2ccccc12)C(=O)N[C@@H](CC(N)=O)C(=O)N1CCC[C@H]1C(=O)NCCOCCOCCOCCOCCOCCOCCOCCOCCOCCOCCOCCC(N)=O [MTS-CPEC4_V2]
[3]; rats, tail vein injection
  accumulation in the CSF: accumulating in the CSF
[5]
  remaining at 24 h: 80%
Choroid plexus cells
  transport across monolayer of choroid plexus cells: efficiently transported

## Dimeric MTS_Z310-2: comprises two MTS peptides each having the sequence FPSWTSKNQQWTNQRQ (SEQ ID NO:4) (also: dimer, linkage not given here)
[3]
  amount present relative to MTS_CPEC4_V2: 9 ×
  distribution in brain (fluorescence imaging of coronal slices): distributed throughout the ventricular system

## FPSWTSKNQQWTNQRQ (molecular transport peptide) [MTS_Z310-2]
[4]
  transport of protein cargo: 20%
